Data on eleven compounds can be found in US6251898A, “Medical use of fluorenone derivatives for treating and preventing brain and spinal injury” (Questcor Pharmaceuticals, Inc., priority 1999, dated 2001).

In the test the test system is UC11-MG human astrocytoma cells. Kind of test: D-aspartate (excitotoxin) release by hypo-osmotically stressed astrocytoma cells. It counts as cell-based. The note with it: for IC50: Homo sapiens, UC11MG, hypo-osmotic stress, about 145 mOsm, AUC-based, read-out: IC50 value (suppression of excitotoxin / D-aspartate release by stressed astrocyte cells); for Comparative potency: relative to L-644,711 (100% = benchmark); for Fold potency versus L-644,711: inhibition of aspartate release, compared to L-644,711. From the text: The in vitro tests described in this example used UC11-MG human astrocytoma cells, obtained from the University of Cincinnati, and described in Liwnicz et al 1986 and Lomneth et al 1989. Cell culture reagents (including RPMI 1640, fetal bovine serum, trypsin, and gentamicin) were obtained from Gibco (Gaithersburg, Md.). Radiolabelled D-[2,3-^3 H]aspartate was obtained from Amersham Life Sciences (Buckinghamshire, England). ScintiVerse II scintillation fluid was obtained from Fisher Scientific (Pittsburgh, Pa.). All other chemicals were obtained from Sigma Chemical Co. (St. Louis, Mo.). Osmolarities of solutions were measured using the Advance DigiMatic Osmometer Model 3D II (Advanced Instruments Inc., Mass.).
The UC11-MG astrocytoma cells were cultured in 75 ml vented flasks at 37° C. inside a humidified incubator in 5% CO2 /95% air. The cells were grown in RPMI Medium 1640 supplemented with 10% fetal bovine serum and […] gentamicin. At approximately 90% confluence, the cells were detached and suspended using a 0.0625% trypsin solution in Buffer A (137 mM NaCl, 5.37 mM KCl, 5.55 mM glucose, 4.17 mM NaHCO3, and 0.54 mM EDTA disodium salt, pH 7.4). The cells were then plated onto 6-well tissue culture plates at a seeding ratio of 4 plates per flask and 4 ml of cell-media suspension per well. The plated cells were used in experiments the next day at approximately 90% confluence. Plates that appeared to be more than 95% confluent were not used, because higher levels of confluence led to uncontrollable differentials in exposure of the cells to culture media and labelled aspartate. All tests were performed in triplicate. All media collections were done at 5 minute intervals, using pipettes, and were followed by promptly loading fresh buffer into each well before any drying occurred. All buffer samples collected in this manner were loaded into scintillation vials, mixed with 5 ml scintillation fluid, and counted for 1 minute in a scintillation counter (Beckman LS8000, Fullerton, Calif.).
Prior to D-aspartate exposure, the wells were washed three times under sterile conditions with 3 ml of 37° C. Buffer B (122 mM NaCl, 3.3 mM KCl, 1.2 mM CaCl2, 0.4 mM MgSO4, 1.2 mM KH2 PO4, 25 mM Hepes, 10 mM glucose, pH 7.4).
The cells were then loaded with 0.5 μCi/ml of D-aspartate, and incubated at 37° C. for 30 min. Cells were then washed four times with Buffer B, and the last washing fluid was left on the cells. The plates were then placed on an orbital shaker and maintained at 37° C.
Baseline aspartate release levels (prior to drug treatment) were determined by incubating the cells with normal Buffer B (285 mOsm) for 15 minutes, while buffer was collected every 5 minutes.
After the buffer was collected from a well at the 15 minute mark, the next set of normal Buffer B added to that well contained a test compound at a known concentration; each compound was tested over a range of concentrations. Cells were then incubated for two 5 minute intervals with solutions of test compounds in normal Buffer B. In some tests which used buffers containing relatively high concentrations of a test drug with limited solubility in water, DMSO was added to the mixture to increase the solubility of the compound in water.
Beginning at the 25-minute mark, the cells were stimulated to begin releasing aspartate by loading a well with hypo-osmotic buffer, prepared by diluting Buffer B with an equal volume of distilled and deionized H2 O, resulting in an osmolarity of about 145 mOsm. This hypo-osmoticsolution caused the cells to begin taking in excess water, to try to reestablish the normal osmotic gradients that exist across the cell membranes. The water-induced swelling and stress then began to induce release of aspartate by the cells, and the amount of aspartate released by the swollen astrocyte cells was measured by removing the buffer every 5 minutes and testing it in a scintillation counter.

For the compound `CCC[C@]12CCC(=O)C=C1c1c(cc(OCC(=O)NCC(OC)OC)c(Cl)c1Cl)C2` [GERI-AmE1, R(+)-N-[2,2-(dimethoxy)-ethyl][(5,6-dichloro-2,3,9,9a-tetrahydro-3-oxo-9a-propyl-1H-fluoren-7-yl)oxy]acetamide], the IC50 came out at 19.4 µM and the Comparative potency is 1,358%.
As to `CCC[C@]12CCC(=O)C=C1c1c(cc(OCC(=O)NCc3ccccc3)c(Cl)c1Cl)C2` [GERI-AmE3, R(+)-N-benzyl-[(5,6-dichloro-2,3,9,9a-tetrahydro-3-oxo-9a-propyl-1H-fluoren-7-yl)oxy]acetamide], the IC50 worked out at 31.9 µM and the Comparative potency came to 826%.
Regarding `CCC[C@]12CCC(=O)C=C1c1c(cc(OCC(=O)NCc3ccccn3)c(Cl)c1Cl)C2` [GERI-AmE4, R(+)-N-[(2-pyridylmethyl][5,6-dichloro-2,3,9,9a-tetrahydro-3-oxo-9a-propyl-1H-fluoren-7-yl)oxy]acetamide], the IC50 came to 11.6 µM and the Comparative potency was 2,272%.
On to `CCC[C@]12CCC(=O)C=C1c1c(cc(OCC(=O)NCCCn3ccnc3)c(Cl)c1Cl)C2` [GERI-AmE5, R(+)-N-[3-(1-imidazolyl)-propyl][(5,6-dichloro-2,3,9,9a-tetrahydro-3-oxo-9a-propyl-1H-fluoren-7-yl)oxy]acetamide], for which the IC50 worked out at 39.8 µM, the “Fold potency versus L-644,711” value is given as about 7 fold and the Comparative potency came to 662%.
For `CCC[C@]12CCC(=O)C=C1c1c(cc(OCC(CO)(CO)CO)c(Cl)c1Cl)C2` [GERI-E1, R-(+)-5,6-dichloro-7-[3-hydroxy-2,2-bis-(hydroxymethyl)propyloxy]-9a-propyl-2,3,9,9a-tetrahydro-1H-fluoren-3-one], the IC50 came out at 29.5 µM and the Comparative potency was determined as 893%.
As to `CCC[C@]12CCC(=O)C=C1c1c(cc(OCc3ccccc3C(=O)O)c(Cl)c1Cl)C2` [GERI-E3, Sodium R(+)-2-[(5,6-dichloro-2 3,9,9a-tetrahydro-3-oxo-9a-propyl-1H-fluoren-7-yl)oxymethyl]benzoate], the IC50 is 7.9 µM and the Comparative potency was 3,335%.
Consider `CCC[C@]12CCC(=O)C=C1c1c(cc(OCc3cccc(C(=O)O)c3)c(Cl)c1Cl)C2` [GERI-E4, Sodium R(+)-3-[(5,6-dichloro-2,3 9,9a-tetrahydro-3-oxo-9a-propyl-1H-fluoren-7-yl)oxymethyl]benzoate], for which the IC50 came to 7.8 µM, the “Fold potency versus L-644,711” value is on record as about 34 fold and the Comparative potency was 3,378%.
Take `CCC[C@]12CCC(=O)C=C1c1c(cc(OCc3ccc(C(=O)O)cc3)c(Cl)c1Cl)C2` [GERI-E5, Sodium R(+)-4-[(5,6-dichloro-2,3,9,9a-tetrahydro-3-oxo-9a-propyl-1H-fluoren-7-yl)oxymethyl]benzoate]: the IC50 was 8 µM and the Comparative potency is reported as 3,294%.
The like results for `CCC[C@]12CCC(=O)C=C1c1c(cc(OCOC(C)=O)c(Cl)c1Cl)C2` [GERI-E13, R-(+)-7-(acetoxymethoxy)-5,6-dichloro-9a-propyl-2,3,9,9a-tetrahydro-1H-fluoren-3-one] were, in that order, 19.2 µM and 1,372%.
As to `CCC[C@]12CCC(=O)C=C1c1c(cc(OC(C)=O)c(Cl)c1Cl)C2` [GERI-Est1, R-(+)-7-acetoxy-5,6-dichloro-9a-propyl-2,3,9,9a-tetrahydro-1H-fluoren-3-one], the IC50 was 13.9 µM and the Comparative potency is recorded as 1,896%.
`CCC[C@]12CCC(=O)C=C1c1c(cc(OCC(=O)O)c(Cl)c1Cl)C2` [L-644,711, R(+)-[(5,6-dichloro-2,3,9,9a-tetrahydro-3-oxo-9a-propyl-1H-fluoren-7-yl)oxy]acetic acid, reference compound]: the IC50 was found to be 264 µM.
